Results on one compound are retold here after patent US9828351B2, “Enzyme interacting agents” (MONASH UNIVERSITY, priority 2014, dated 2017).

The structures appear in SMILES notation.

Common to all, as to type: cell-based
Test [1] addresses T1, Dihydroceramide Desaturase-1 (Des1) (Homo sapiens, UniProt O15121).
T1 construct: These modifications included the use of parental Jurkat cells; endogenous in cells; host or cells: parental Jurkat cells
T1 sequence (O15121 1-323): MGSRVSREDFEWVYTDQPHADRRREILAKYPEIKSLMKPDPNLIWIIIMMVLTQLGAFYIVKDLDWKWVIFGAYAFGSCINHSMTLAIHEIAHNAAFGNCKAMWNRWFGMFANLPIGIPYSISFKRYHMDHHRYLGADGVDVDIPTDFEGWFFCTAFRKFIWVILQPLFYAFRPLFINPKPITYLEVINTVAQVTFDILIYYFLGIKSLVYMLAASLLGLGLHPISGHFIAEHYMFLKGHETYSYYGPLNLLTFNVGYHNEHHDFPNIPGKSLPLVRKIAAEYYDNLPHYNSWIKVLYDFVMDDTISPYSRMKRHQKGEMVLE
As to the kind of experiment: Dihydroceramide desaturase-1 (Des1) activity by HPLC in intact Jurkat cells labeled with DhCer-C6-NBD. The following applies: intact Jurkat cells; read-out: Des 1 IC50. How it is done: Measurement of Dihydroceramide Desaturase-1 (Des1) Activity:
These modifications included the use of parental Jurkat cells, 0.5% serum in the culture media, and cell harvesting via centrifugation at 500×g to maximise ceramide extraction. Extracted samples (50 ul) were analysed on a Waters HPLC coupled to a fluorescence detector using a 30 cm C18 reverse-phase column eluted with 1 ml/min 20% H2O and 80% acetonitrile, both with a 0.1% of trifluoroacetic acid.

In test [2] the test system is PC3 prostate cancer cell lines. The experiment in a line: Anticancer activity in PC3 cell line, CellTitre AQueous One cell viability assay. The following applies: Homo sapiens, PC-3; concentration required to inhibit cell proliferation by 50%; 72 hours. How it is done:
Measurement of Anticancer Activity in PC3 Cell Line Assays
PC3 prostate cancer cell lines were cultured in DMEM (containing 10% fetal calf serum and penicillin-streptomycin).
Before treatment with drug compounds, cells were plated at 2,500 cells/well in 96 well plates and incubated at 37° C. with 5% CO2 in a humidified incubator for 24 hours prior. Cells were only plated in columns 3-10 and rows C—F to ensure uniform humidity and warmth across all wells. The remaining wells were filled with 100 μL of phosphate buffered saline.
Drug stock solutions (50 or 10 mM) were diluted×1000 in media to a final concentration of either 50 μM or 10 μM with a DMSO vehicle concentration of 0.1%.
Cell culture supernatants were aspirated and replaced with drug containing media. Drug treatments were performed in duplicate wells, while potential plate layout-specific variation in cell growth was accounted for by addition of a vehicle control (0.1% DMSO).
Cells were then incubated with drug compounds at 37° C. with 5% CO2 in a humidified incubator for 72 hours prior to assay.
Media was diluted with CellTitre AQueous One Solution (Promega, Australia; Cat # G3580) according to manufacturer's instructions to produce a final concentration of 317 μg/mL.
Cell culture supernatants were then aspirated from wells and replaced with 100 μL of CellTitre solution. Triplicate cell-free control wells containing only CellTitre solution were also included in each assay.
Cells were then incubated at 37° C. with 5% CO2 in a humidified incubator for 1 hour at which time absorbance was read at 490 nm with an EnVision microplate reader (Perkin Elmer, Australia).
When analysing data, background absorbance (taken from cell-free control wells) was subtracted from each reading. […] For each drug concentration the mean (±SEM) is calculated and graphed using GraphPad Prism (version 5). A sigmoidal curved is fitted to the data and used to calculate the IC50 of each compound.

Test [3] addresses T2, SphK1a in Flpln-SphK1a cells (Flp-In T-Rex HEK293) (Homo sapiens, UniProt Q9NYA1).
T2 construct: expressed in transfected cells; host or cells: Flp-In T-Rex HEK293 cells, doxycycline-induced
As to the kind of experiment: SphK1 proteasomal degradation study (immunoblotting). The note with it: 10 μM test compound, 24 h. How it is done: These studies were performed as previously described for the drug SKI-II (C. Loveridge et al. J. Biol. Chem. 2010, 285, 38891). […] After 24 h cells were treated with 10 μm test compound, 10 μm MG132, or both. DMSO was used as the vehicle control. After a further 24 h, cells were harvested, lysed, and subjected to SDS-PAGE and immunoblotting with anti-FLAG (Sigma), anti-ERK1/2 (Promega), or anti-a-tubulin (Abcam) antibodies.
On the technique in general: In western blotting, separated proteins are transferred to a membrane and probed.

The next test deals with MCF7 breast cancer cells. The experiment in a line: Anticancer activity in MCF7 cell lines, MTS assay. The note with it: Homo sapiens, concentration required to inhibit cell proliferation by 50%, 72 hrs, read-out: MCF-7 IC50. As for the experimental part:
Measurement of Anticancer Activity in MCF7 Cell Lines
MCF7 breast cancer cells were treated with the test compounds and incubated at 37° C., 5% CO2 in air for 72 hrs. The MTS assay was conducted with addition of prepared MTS solution followed by 2 hr incubation, an OD reading and the raw data recorded. The data was managed in tabular form, values adjusted for vehicle control, and the adjusted values graphed as a sigmoidal curve and the EC50 value calculated.

T2 sequence (Q9NYA1 whole entry): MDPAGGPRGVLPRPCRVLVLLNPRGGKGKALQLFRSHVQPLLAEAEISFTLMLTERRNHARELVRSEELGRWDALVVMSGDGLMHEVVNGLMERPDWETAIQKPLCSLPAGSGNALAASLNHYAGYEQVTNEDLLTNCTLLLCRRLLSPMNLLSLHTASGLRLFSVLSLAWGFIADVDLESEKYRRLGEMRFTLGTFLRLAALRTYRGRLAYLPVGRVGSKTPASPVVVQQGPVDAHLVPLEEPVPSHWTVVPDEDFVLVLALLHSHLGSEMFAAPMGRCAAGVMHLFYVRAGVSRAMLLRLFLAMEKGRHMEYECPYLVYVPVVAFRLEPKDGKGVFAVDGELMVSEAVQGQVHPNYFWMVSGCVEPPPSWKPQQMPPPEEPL

For orientation: IC50 means the concentration at which inhibition is half-maximal. For the compound `Oc1ccc(Nc2nc(-c3ccc(Cl)cc3)cs2)cc1` [SKI-II, reference compound], the IC50 was in the range of 0.1 to 1 µM in test [1], 1 to 10 µM in test [2] and 10 to 100 µM with MCF7 breast cancer cells. Besides, the “% SphK1a degradation at 10 μM” value in test [3] is reported as 100%.
